Results from patent publication US8148392B2, “2-indolyl imidazo [4,5-d] phenanthroline derivatives and their use in the treatment of cancer” (Lorus Therapeutics Inc., priority 2005, dated 2012).
“Also recorded” adds a separate entry of the source.

Key:
MTF-1 [1] = assay: MTF-1 mRNA in HT-29 tumour xenografts, RT-PCR; type: in vivo, CD-1 athymic nude mice; details: HT-29 xenograft, versus vehicle
Protocol: Correlation between zinc-sensitive transcription factor MTF-1 and a cell cycle regulator Cyclin D1 expression in HT-29 colon cancer xenograft tissues is shown in FIG. 30. Based on the presence of putative MTF-1-binding DNA sequences in Cyclin D1 gene promoter region (shown in FIG. 30A), expression levels of MTF-1 and Cyclin D1 in xenograft tissues were examined by RT-PCR, using tissue RNA extract.
The tumor regression efficacy of compound 3 was assessed in compound 3-treated HT-29-transplanted athymic mice (FIG. 54A), and correlated with gene expressions of MTF-1, KLF4 and Cyclin D1 in HT-29 xenograft tissues (FIG. 54B). CD-1 athymic nude mice (4 per group) were injected subcutaneously with HT-29 cells (3×10^6 cells in 0.1 mL PBS). At 5 days after tumor cell inoculation, the mice were intra-peritoneally injected with 200 μL vehicle control or 100 mg/kg compound 3, for 5 days followed by 10 days interval, for 2 cycles (day 5 to 9 as a first cycle injection and day 20 to 24 as a second cycle injection). The tumor size was measured during the course of treatment using calipers (FIG. 54A). The mice were sacrificed at 34 days after tumor cell inoculation. The tumor tissues were excised, frozen immediately and stored at −80° C. until RNA extraction and gene expression was analyzed by RT-PCR (FIG. 54B). […]

[2] = PAR metal binding assay, iron; type: physicochemical; details: 200 μM compound
Protocol: Results are shown in FIGS. 28A (ZnCl2), 28B (CuCl2) and 28C (FeCl2). In vitro 4-(2-pyridylazo) resorcinol (PAR) zinc binding assay was performed as follows. In triplicate wells of 96-well plate (Sarstedt, Newton, N.C.), 10 μL volume of indicated final concentrations of ZnCl2 in 0.2M Tris-HCl, pH 7.5 was incubated with 10 μL of 80% acetonitrile-20% DMSO vehicle control or indicated final concentrations of the compounds of Formula I, dissolved in 80% acetonitrile-20% DMSO, for 15 min at room temperature. Then, 80 μL of PAR at final concentration of 200 μM in 0.2M Tris-HCl, pH 7.5 was added and the color development of PAR-Zn^2+ complex was measured by a multi-well spectrophotometer (Bio-Tek Instruments Inc.) at 500 nm.
Metal chelation property of compound 64 and the relative affinity on different metal ions were evaluated and compared with the effect of compound 3 in vitro using 4-(2-pyridylazo) resorcinol (PAR) colorimetric zinc assay utilizing methodology as described above in the preceding Examples. Indicated final concentrations of ZnCl2 (FIG. 56A), CuCl2 (FIG. 56B) or FeCl2 (FIG. 56C) were incubated with 80% acetonitrile-20% DMSO vehicle control or 200 μM of the compounds of Formula I. The color development of PAR-metal ion complex was measured by a multi-well spectrophotometer at 500 nm.

Cyclin D1 protein = Cyclin D1 protein in HT-29 cells, Western blotting; type: cell-based, human; details: HT-29, 1 μM
Protocol: Gene and protein expression of Cyclin D1 after treatment with compound 3 was determined by RT-PCR and Western blotting as shown in FIGS. 43A and 43B, respectively, as follows. HT-29 cells were treated with 1 μM compound 3 for indicated time. Total RNA was extracted and gene expression level was determined by RT-PCR. Cyclin D1 protein expression in HT-29 cell lysate was determined by SDS-PAGE followed by Western blotting.
To identify the cell cycle regulatory pathway involved in compound 3-mediated cell cycle arrest as shown in Example 23 and 41, particularly associated with G1/S phase, expression of the key cell cycle regulator of G1/S phase progression, Cyclin D1, was examined.

KLF4 = KLF4 DNA binding activity, EMSA, HT-29 nuclear extracts; type: cell-based, human
Protocol: Based on overlapping transcription factor binding sites on KLF4 gene promoter region (as shown in FIG. 32A), MTF-1 binding may favor increased binding of other KLF4 inducers; Sp1 and KLF4.
Electrophoretic mobility shift assay (EMSA) was performed as follows. Nuclear extracts from HT-29 cells (10^7 cells in 100 mm culture dish in each experimental group) were prepared using nuclear extraction kit (Panomics, Redwood City, Calif.). EMSA assays were performed using KLF4 and Sp1 EMSA “Gel-Shift” kits (Panomics), by following the manufacturer's instruction. Briefly, 5 μg of nuclear extract was used for each binding reaction. After 30 min of binding reaction, the samples were separated on 6% polyacrylamide gel at 4° C. at 120 V, and transferred to BrightStar™-Plus positively charged nylon membrane. The biotin-labeled probes on the membrane were visualized by using ECL detection system (Panomics).

[3] = In vitro chelation of zinc ions, Zinquin fluorescence; type: physicochemical; details: ZnCl2 2 μM in PBS, Zinquin 10 μM, 30 min
Protocol: To determine the chelation property of compound 3 with zinc ions in vitro, free available zinc ions were measured by spectrofluorometry using zinc-sensitive fluorescent dye Zinquin, following pre-incubation of ZnCl2 with different concentrations of compound 3 (FIG. 36). ZnCl2 2 μM was incubated with indicated concentrations of compound 3, in phosphate buffer saline (PBS), followed by addition of Zinquin, 10 μM final concentration for 30 min. Zinquin fluorescence upon zinc binding was measured in a Fluoroskan Ascent luminescence spectrofluorometer, at 364 nm excitation and 485 nm emission wavelengths.

MTF-1 [4] = assay: MTF-1 binding to Cyclin D1 promoter, ChIP, HT-29; type: cell-based, human; details: HT-29, 16 hr, versus basal level
Protocol: To examine decreased MTF-1 binding to the promoter region of the MTF-1-targeted gene, cell-cycle regulatory gene Cyclin D1, HT-29 cells were treated with compound 3 for 16 hr and MTF-1 binding to Cyclin D1 promoter was assessed by chromatin immuno-precipitation assay (ChIP) (Active Motif, Carlsbad, Calif.). At the end of 16 hr treatment with compound 3, the cells were fixed with 1% formaldehyde to cross-link transcriptions factors and their target chromatin. Chromatin complexes were sheared and MTF-1-bound chromatin was pulled down by using antibody to MTF-1 (Santacruz Biotechnology Inc.). Cross-linking was reversed and the MTF-1-associated DNA was amplified by polymerase chain reaction using the primers encompassing −231 to −92 region of Cyclin D1 promoter. The 5′ primer (5′-CGGACTACAGGGGCAA-3′) [SEQ ID NO:1] and the 3′ primer (5′-GCTCCAGGACTTTGCA-3′) [SEQ ID NO:2] were synthesized at Invitrogen.

Cc1[nH]c2ccccc2c1-c1nc2c3cccnc3c3ncccc3c2[nH]1 [Compound 3]
MTF-1 expression in tumour xenografts (MTF-1 [1]; listed as compound 3): Decreased MTF-1 expression; also recorded: decrease in MTF-1 and Cyclin D1 gene expressions | color development of PAR-Fe2+ [2]: minimally affected | Cyclin D1 protein expression (Cyclin D1 protein): decrease in both gene (FIG. 43A) and protein (FIG. 43B) levels of Cyclin D1; also recorded: Decreased protein expression of Cyclin D1 | DNA binding activity of KLF4 (KLF4): Increased DNA binding activities | Zinquin fluorescence (free zinc ions) [3]: Dose-dependent decrease in Zinquin fluorescence | MTF-1 binding to Cyclin D1 promoter (MTF-1 [4]): Decreased MTF-1 binding to Cyclin D1 promoter

Cc1[nH]c2ccc(F)cc2c1-c1nc2c3cccnc3c3ncccc3c2[nH]1 [Compound 7]
MTF-1 expression in tumour xenografts (MTF-1 [1]): Decreased MTF-1 expression

CCc1cccc2c(-c3nc4c5cccnc5c5ncccc5c4[nH]3)c(C(C)(C)C)[nH]c12 [Compound 64]
color development of PAR-Fe2+ [2]: minimally affected
